Like-named read-outs stand apart in the source and are kept apart here.
How the values were obtained:
[1] = molecular target: T1, auto-activated mutant protein SHP2 E76K (Homo sapiens (Human), UniProt Q06124, E76K); test: SHP2 E76K mutant biochemical assay with activating peptide IRSI_2pY; settings: SHP2 E76K mutant with activating peptide IRSI_2pY 140 nM; read-out: SHP-2 E76Z IC50 peptide
Method: (§1) The inhibition of SHP2 by compounds of the invention was monitored using the surrogate substrate DiFMUP after protein activation by a peptide bearing two appropriately spaced phosphotyrosine. Full length SHP2 protein (Recombinant HumanSHP-2, E. coli derived Ser2Arg593, N-terminal 6His tag from R&D systems; […]) was incubated with activating peptide, IRSI_2pY (New England Peptide, 140 nM) and DiFMUP (molecular probes, 80 uM) at RT in buffer (HEPES pH 7.2 60 mM, DDT 5 mM, KCl 75 mM, NaCl 75 mM, EDTA 1 mM, Tween 20 0.05%) in presence of compound (10 concentrations range, top concentration 50 μM) for 60 min. The generation of the DiFMU product by activated SHP2 was monitored through Fluorescence measurement with a PerkinElmer Envision reader.
(§2) A selection of compounds has been tested in a biochemical assay using same conditions as described in example 3, but with an auto-activated mutant protein SHP2 E76K with and without the addition of the activating peptide IRSI_2pY (New England Peptide, 140 nM).

[2] = molecular target: Kv11.1 (hERG) ion channel (Homo sapiens (Human), UniProt Q12809); assay type: cell-based; settings: ratio of hERG Ki (patch clamp) to pERK IC50 in KYSE520
Method: Inhibition of the ion channel hErg (or Kv11.1) current causes QT interval prolongation resulting in potentially fatal ventricular tachyarrhythmia called Torsade de Pointes.
hERG ion channel activity was assessed using a patch clamp technique in stable Kv11.1 (hERG) transfected human embryonic kidney cell line (HEK293). Whole cell recordings were carried out with an automated patch clamp device Patchliner™ from Nanion Technologies, Munich following manufacturer recommendation. Different concentrations of the test compound or reference, quinidine, were applied to whole cells suspension and current was measured using a pulse pattern with fixed amplitudes.

[3] = molecular target: Full length SHP2 protein (Recombinant Human SHP-2) (Homo sapiens, UniProt Q06124); test: SHP2 biochemical assay (DiFMUP substrate, activating peptide IRSI_2pY)
Method: The inhibition of SHP2 by compounds of the invention was monitored using the surrogate substrate DiFMUP after protein activation by a peptide bearing two appropriately spaced phosphotyrosine. […] The generation of the DiFMU product by activated SHP2 was monitored through Fluorescence measurement with a PerkinElmer Envision reader.
The inhibitor dose response curves were analyzed with Genedata Screener.

[4] = molecular target: T1, auto-activated mutant protein SHP2 E76K; test: SHP2 E76K mutant biochemical assay without activating peptide; settings: no activating peptide, read-out: SHP-2 E76Z IC50 No peptide
Method: as §1, §2

T1 sequence (Q06124 whole entry E76K): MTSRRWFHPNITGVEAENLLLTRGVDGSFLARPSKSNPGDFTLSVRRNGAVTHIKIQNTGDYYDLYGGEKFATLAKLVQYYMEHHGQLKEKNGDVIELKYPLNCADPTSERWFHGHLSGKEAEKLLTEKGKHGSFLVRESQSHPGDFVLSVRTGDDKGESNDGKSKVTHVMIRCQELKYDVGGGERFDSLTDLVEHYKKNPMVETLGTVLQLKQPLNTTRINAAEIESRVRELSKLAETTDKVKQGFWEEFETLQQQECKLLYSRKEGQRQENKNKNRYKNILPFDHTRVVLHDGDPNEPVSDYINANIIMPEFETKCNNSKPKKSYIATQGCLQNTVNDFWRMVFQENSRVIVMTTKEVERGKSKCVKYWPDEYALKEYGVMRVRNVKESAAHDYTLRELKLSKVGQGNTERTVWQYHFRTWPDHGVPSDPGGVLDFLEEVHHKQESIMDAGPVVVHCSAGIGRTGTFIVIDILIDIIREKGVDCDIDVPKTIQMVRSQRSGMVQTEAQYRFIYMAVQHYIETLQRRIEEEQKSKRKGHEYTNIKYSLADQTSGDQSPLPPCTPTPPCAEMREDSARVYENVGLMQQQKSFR
Chain of Full length SHP2 protein (Recombinant Human SHP-2) (Q06124 2-593 limits assumed): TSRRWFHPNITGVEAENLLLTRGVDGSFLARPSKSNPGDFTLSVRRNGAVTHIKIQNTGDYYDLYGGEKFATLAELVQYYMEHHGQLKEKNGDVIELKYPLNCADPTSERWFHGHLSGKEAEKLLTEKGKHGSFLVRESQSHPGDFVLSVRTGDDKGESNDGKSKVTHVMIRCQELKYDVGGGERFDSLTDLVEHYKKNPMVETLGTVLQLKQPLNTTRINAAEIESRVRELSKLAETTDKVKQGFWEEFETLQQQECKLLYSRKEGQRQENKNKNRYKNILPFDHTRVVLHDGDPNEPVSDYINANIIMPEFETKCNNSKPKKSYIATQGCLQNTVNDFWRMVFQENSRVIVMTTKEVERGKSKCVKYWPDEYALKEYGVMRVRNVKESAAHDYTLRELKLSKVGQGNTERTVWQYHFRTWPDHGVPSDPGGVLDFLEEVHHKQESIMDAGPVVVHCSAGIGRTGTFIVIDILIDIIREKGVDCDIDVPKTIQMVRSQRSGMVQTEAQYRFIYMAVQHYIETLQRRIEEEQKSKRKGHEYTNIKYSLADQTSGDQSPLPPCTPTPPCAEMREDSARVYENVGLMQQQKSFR
Chain of Kv11.1 (hERG) ion channel (Q12809 whole entry): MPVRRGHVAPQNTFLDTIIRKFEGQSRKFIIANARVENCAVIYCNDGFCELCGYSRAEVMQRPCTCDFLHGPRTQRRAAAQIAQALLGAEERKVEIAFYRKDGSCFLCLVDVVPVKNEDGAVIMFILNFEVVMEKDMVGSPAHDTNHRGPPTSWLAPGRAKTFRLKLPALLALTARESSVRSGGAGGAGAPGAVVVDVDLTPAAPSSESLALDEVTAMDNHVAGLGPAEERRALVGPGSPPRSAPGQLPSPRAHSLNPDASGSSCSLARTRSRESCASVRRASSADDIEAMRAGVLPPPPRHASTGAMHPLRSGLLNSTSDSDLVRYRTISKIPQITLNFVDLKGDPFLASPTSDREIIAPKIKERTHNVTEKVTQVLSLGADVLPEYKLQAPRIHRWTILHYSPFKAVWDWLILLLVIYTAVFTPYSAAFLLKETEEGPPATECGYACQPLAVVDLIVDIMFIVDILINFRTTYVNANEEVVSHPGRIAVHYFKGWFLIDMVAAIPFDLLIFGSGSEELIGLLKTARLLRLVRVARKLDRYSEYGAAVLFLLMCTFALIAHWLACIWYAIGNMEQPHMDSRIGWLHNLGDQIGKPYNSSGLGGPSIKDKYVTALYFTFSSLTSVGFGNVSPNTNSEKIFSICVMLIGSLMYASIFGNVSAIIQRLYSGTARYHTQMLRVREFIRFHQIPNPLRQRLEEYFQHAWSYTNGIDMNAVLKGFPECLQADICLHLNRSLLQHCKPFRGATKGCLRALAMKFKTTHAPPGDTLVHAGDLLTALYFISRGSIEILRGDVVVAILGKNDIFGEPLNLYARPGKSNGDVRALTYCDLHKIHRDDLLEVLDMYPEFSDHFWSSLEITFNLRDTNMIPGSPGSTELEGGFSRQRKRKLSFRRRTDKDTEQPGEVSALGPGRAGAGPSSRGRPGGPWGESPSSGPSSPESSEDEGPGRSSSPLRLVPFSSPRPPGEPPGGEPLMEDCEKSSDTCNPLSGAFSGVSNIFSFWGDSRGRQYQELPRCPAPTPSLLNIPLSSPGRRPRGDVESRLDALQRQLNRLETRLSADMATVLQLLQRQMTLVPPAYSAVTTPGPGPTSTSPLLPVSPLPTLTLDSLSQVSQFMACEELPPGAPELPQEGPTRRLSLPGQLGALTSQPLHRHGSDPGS

Structure (SMILES): NC(=O)c1nc(N2CCC3(CC2)Cc2ccccc2[C@H]3N)nc(N)c1-c1cccc(Cl)c1Cl (single isomer, unassigned) [Compound 117]
- IC50 [1]: 1.1 nM
- Split between hErg and cell activity Ki(patch Clamp)/IC50 (KYSE) [2]: >50
- IC50 ([3]; DiFMUP substrate, activating peptide IRSI_2pY, 60 min at RT, read-out: SHP-2 Biochemical assay IC50): 1 nM
- IC50 ([3]; wild-type SHP-2 with activating peptide, read-out: SHP-2 IC50 peptide): 0.4 nM
- IC50 [4]: 0.5 nM
